This note sets out measurements from patent publication US20060216327A1, “Multilayer coating for releasing biologically-active agents and method of making” (Bacterin, Inc., priority 2005, published 2006).

This data set can be described thus: Bupivacaine elution profile from coated stents of Example 4 in PBS flow chamber (HPLC). The format is physicochemical. Conditions: coated stent of Example 4 (calcium phosphate base layer + PVA polymer layer), 10 ml PBS per day. The protocol:
An elution analysis was performed to assay release of bupivacaine over time from the coated stents of Example 4. An 18 mm long test specimen having a known surface area was cut from one of the coated stents of Example 4 and placed in a flow chamber. For 7 days, the test specimen was bathed with 10 ml per day of a phosphate buffered saline (PBS) solution. Every 24 hours, a 100 μl sample was taken of the 10 ml of PBS effluent collected over the preceding 24 hour period. The amount of bupivacaine in a 10 μl aliquot of the sample was quantified using a reverse-phase high pressure liquid chromatography (HPLC) system including a […] silica column. A solution of 30% acetonitrile and 70% buffered acid (985 ml of HPLC-grade water, 15 ml 1.0 M HCl, and 1.38 grams monobasic NaH2PO4) was employed as the mobile phase for the HPLC analysis. The data from the HPLC analysis was then normalized against the surface area of the test specimen and 10 ml volume of PBS effluent. Each data point represents the amount of bupivacaine eluted into the PBS solution during the proceeding 24-hour period, with each data point expressed in terms of in μg of bupivacaine released per cm^2 of coated stent surface. […]

`CCCCN1CCCCC1C(=O)Nc1c(C)cccc1C` (centres unmarked) [bupivacaine]: the “release of bupivacaine from coated stent into PBS solution” value is, setting by setting: (days 1-3, attributed to the polymer layer) “relative burst release”; (days 4-7, attributed to erosion of the calcium phosphate base layer) “more gradual release”.
